According to ChEMBL document CHEMBL3046846, “Synthesis of N-Alkyl-2, 3-dimethyl-5-[N-(5-halo-2-methylphenyl)carbamoyl]-6-pyrazinecarboxamides and Their Herbicidal Activity” (J Pestic Sci, 1997):

Test system: Xanthium strumarium
Test: Herbicidal activity against Xanthium strumarium (cocklebur) 5000 g/ha after 2 weeks
Format: functional
Conditions: not given

Row | Structure (SMILES) | Activity [%]
1 | Cc1ccc(F)cc1NC(=O)c1nc(C)c(C)nc1C(=O)NC(C)C | 70
2 | CCCCNC(=O)c1nc(C)c(C)nc1C(=O)Nc1cc(Cl)ccc1C | 50

Test system: Glycine max
Test: Herbicidal activity against Glycine max (soybean) at 5000 g/ha after 2 weeks
Format: organism-based
Conditions: in vivo, 336 h

Row | Structure (SMILES) | Activity [%]
3 | Cc1ccc(F)cc1NC(=O)c1nc(C)c(C)nc1C(=O)NC(C)C | < 10
4 | CCCCNC(=O)c1nc(C)c(C)nc1C(=O)Nc1cc(Cl)ccc1C | < 10

Test system: Veronica persica
Test: Herbicidal activity against Veronica persica at 250 g/ha after 2 weeks
Format: functional
Conditions: not given

Row | Structure (SMILES) | Activity [%]
5 | Cc1ccc(F)cc1NC(=O)c1nc(C)c(C)nc1C(=O)NC(C)C | 70
6 | CCCCNC(=O)c1nc(C)c(C)nc1C(=O)Nc1cc(Cl)ccc1C | 10

Test system: Triticum aestivum
Test: Herbicidal activity against Triticum aestivum (wheat) at 500 g/ha after 2 weeks
Format: ADME, organism-based
Conditions: in vivo, 336 h

Row | Structure (SMILES) | Activity [%]
7 | Cc1ccc(F)cc1NC(=O)c1nc(C)c(C)nc1C(=O)NC(C)C | 10
8 | CCCCNC(=O)c1nc(C)c(C)nc1C(=O)Nc1cc(Cl)ccc1C | < 10

Test system: Triticum aestivum
Test: Herbicidal activity against Triticum aestivum (wheat) at 250 g/ha after 2 weeks
Format: organism-based
Conditions: in vivo, 336 h

Row | Structure (SMILES) | Activity [%]
9 | Cc1ccc(F)cc1NC(=O)c1nc(C)c(C)nc1C(=O)NC(C)C | < 10
10 | CCCCNC(=O)c1nc(C)c(C)nc1C(=O)Nc1cc(Cl)ccc1C | < 10

Test system: Echinochloa crus-galli
Test: Herbicidal activity against Echinochloa crus-galli (barnyard grass) at 500 g/ha after 2 weeks
Format: functional
Conditions: not given

Row | Structure (SMILES) | Activity [%]
11 | Cc1ccc(F)cc1NC(=O)c1nc(C)c(C)nc1C(=O)NC(C)C | 30
12 | CCCCNC(=O)c1nc(C)c(C)nc1C(=O)Nc1cc(Cl)ccc1C | <10

Test system: Echinochloa crus-galli
Test: Herbicidal activity against Echinochloa crus-galli (barnyard grass) at 5000 g/ha after 2 weeks
Format: functional
Conditions: not given

Row | Structure (SMILES) | Activity [%]
13 | Cc1ccc(F)cc1NC(=O)c1nc(C)c(C)nc1C(=O)NC(C)C | 50
14 | CCCCNC(=O)c1nc(C)c(C)nc1C(=O)Nc1cc(Cl)ccc1C | 50

Test system: Avena fatua
Test: Herbicidal activity against Avena fatua at 250 g/ha after 2 weeks
Format: functional
Conditions: not given

Row | Structure (SMILES) | Activity [%]
15 | Cc1ccc(F)cc1NC(=O)c1nc(C)c(C)nc1C(=O)NC(C)C | <10
16 | CCCCNC(=O)c1nc(C)c(C)nc1C(=O)Nc1cc(Cl)ccc1C | <10

Test system: Veronica persica
Test: Herbicidal activity against Veronica persica at 5000 g/ha after 2 weeks
Format: functional
Conditions: not given

Row | Structure (SMILES) | Activity [%]
17 | Cc1ccc(F)cc1NC(=O)c1nc(C)c(C)nc1C(=O)NC(C)C | 95
18 | CCCCNC(=O)c1nc(C)c(C)nc1C(=O)Nc1cc(Cl)ccc1C | 95

Test system: Galium spurium
Test: Herbicidal activity against Galium spurium var. echinospermon (Wally.) Hayek at 250 g/ha after 2 weeks
Format: functional
Conditions: not given

Row | Structure (SMILES) | Activity [%]
19 | Cc1ccc(F)cc1NC(=O)c1nc(C)c(C)nc1C(=O)NC(C)C | <10
20 | CCCCNC(=O)c1nc(C)c(C)nc1C(=O)Nc1cc(Cl)ccc1C | <10

Test system: Veronica persica
Test: Herbicidal activity against Veronica persica at 500 g/ha after 2 weeks
Format: functional
Conditions: not given

Row | Structure (SMILES) | Activity [%]
21 | Cc1ccc(F)cc1NC(=O)c1nc(C)c(C)nc1C(=O)NC(C)C | 95
22 | CCCCNC(=O)c1nc(C)c(C)nc1C(=O)Nc1cc(Cl)ccc1C | 50

Test system: Abutilon theophrasti
Test: Herbicidal activity against Abutilon theophrasti (velvetleaf) at 250 g/ha after 2 weeks
Format: functional
Conditions: not given

Row | Structure (SMILES) | Activity [%]
23 | Cc1ccc(F)cc1NC(=O)c1nc(C)c(C)nc1C(=O)NC(C)C | 50
24 | CCCCNC(=O)c1nc(C)c(C)nc1C(=O)Nc1cc(Cl)ccc1C | <10

Test system: Galium spurium
Test: Herbicidal activity against Galium spurium var. echinospermon (Wally.) Hayek at 5000 g/ha after 2 weeks
Format: functional
Conditions: not given

Row | Structure (SMILES) | Activity [%]
25 | Cc1ccc(F)cc1NC(=O)c1nc(C)c(C)nc1C(=O)NC(C)C | 70
26 | CCCCNC(=O)c1nc(C)c(C)nc1C(=O)Nc1cc(Cl)ccc1C | 30

Test system: Glycine max
Test: Herbicidal activity against Glycine max (soybean) at 250 g/ha after 2 weeks
Format: organism-based
Conditions: in vivo, 336 h

Row | Structure (SMILES) | Activity [%]
27 | Cc1ccc(F)cc1NC(=O)c1nc(C)c(C)nc1C(=O)NC(C)C | < 10
28 | CCCCNC(=O)c1nc(C)c(C)nc1C(=O)Nc1cc(Cl)ccc1C | < 10

Test system: Xanthium strumarium
Test: Herbicidal activity against Xanthium strumarium (cocklebur) 250 g/ha after 2 weeks
Format: functional
Conditions: not given

Row | Structure (SMILES) | Activity [%]
29 | Cc1ccc(F)cc1NC(=O)c1nc(C)c(C)nc1C(=O)NC(C)C | 10
30 | CCCCNC(=O)c1nc(C)c(C)nc1C(=O)Nc1cc(Cl)ccc1C | <10

Test system: Echinochloa crus-galli
Test: Herbicidal activity against Echinochloa crus-galli (barnyard grass) at 250 g/ha after 2 weeks
Format: functional
Conditions: not given

Row | Structure (SMILES) | Activity [%]
31 | Cc1ccc(F)cc1NC(=O)c1nc(C)c(C)nc1C(=O)NC(C)C | <10
32 | CCCCNC(=O)c1nc(C)c(C)nc1C(=O)Nc1cc(Cl)ccc1C | <10

Test system: Xanthium strumarium
Test: Herbicidal activity against Xanthium strumarium (cocklebur) 500 g/ha after 2 weeks
Format: functional
Conditions: not given

Row | Structure (SMILES) | Activity [%]
33 | Cc1ccc(F)cc1NC(=O)c1nc(C)c(C)nc1C(=O)NC(C)C | 70
34 | CCCCNC(=O)c1nc(C)c(C)nc1C(=O)Nc1cc(Cl)ccc1C | <10

Test system: Glycine max
Test: Herbicidal activity against Glycine max (soybean) at 500 g/ha after 2 weeks
Format: organism-based
Conditions: in vivo, 336 h

Row | Structure (SMILES) | Activity [%]
35 | Cc1ccc(F)cc1NC(=O)c1nc(C)c(C)nc1C(=O)NC(C)C | < 10
36 | CCCCNC(=O)c1nc(C)c(C)nc1C(=O)Nc1cc(Cl)ccc1C | < 10

Test system: Triticum aestivum
Test: Herbicidal activity against Triticum aestivum (wheat) at 5000 g/ha after 2 weeks
Format: ADME, organism-based
Conditions: in vivo, 336 h

Row | Structure (SMILES) | Activity [%]
37 | Cc1ccc(F)cc1NC(=O)c1nc(C)c(C)nc1C(=O)NC(C)C | 30
38 | CCCCNC(=O)c1nc(C)c(C)nc1C(=O)Nc1cc(Cl)ccc1C | 30

Test system: Galium spurium
Test: Herbicidal activity against Galium spurium var. echinospermon (Wally.) Hayek at 500 g/ha after 2 weeks
Format: functional
Conditions: not given

Row | Structure (SMILES) | Activity [%]
39 | Cc1ccc(F)cc1NC(=O)c1nc(C)c(C)nc1C(=O)NC(C)C | <10
40 | CCCCNC(=O)c1nc(C)c(C)nc1C(=O)Nc1cc(Cl)ccc1C | <10

Test system: Abutilon theophrasti
Test: Herbicidal activity against Abutilon theophrasti (velvetleaf) at 500 g/ha after 2 weeks
Format: functional
Conditions: not given

Row | Structure (SMILES) | Activity [%]
41 | Cc1ccc(F)cc1NC(=O)c1nc(C)c(C)nc1C(=O)NC(C)C | 70
42 | CCCCNC(=O)c1nc(C)c(C)nc1C(=O)Nc1cc(Cl)ccc1C | <10

Test system: Abutilon theophrasti
Test: Herbicidal activity against Abutilon theophrasti (velvetleaf) at 5000 g/ha after 2 weeks
Format: functional
Conditions: not given

Row | Structure (SMILES) | Activity [%]
43 | Cc1ccc(F)cc1NC(=O)c1nc(C)c(C)nc1C(=O)NC(C)C | 50
44 | CCCCNC(=O)c1nc(C)c(C)nc1C(=O)Nc1cc(Cl)ccc1C | 95

Test system: Avena fatua
Test: Herbicidal activity against Avena fatua at 500 g/ha after 2 weeks
Format: functional
Conditions: not given

Row | Structure (SMILES) | Activity [%]
45 | Cc1ccc(F)cc1NC(=O)c1nc(C)c(C)nc1C(=O)NC(C)C | 30
46 | CCCCNC(=O)c1nc(C)c(C)nc1C(=O)Nc1cc(Cl)ccc1C | <10

Test system: Avena fatua
Test: Herbicidal activity against Avena fatua at 5000 g/ha after 2 weeks
Format: functional
Conditions: not given

Row | Structure (SMILES) | Activity [%]
47 | Cc1ccc(F)cc1NC(=O)c1nc(C)c(C)nc1C(=O)NC(C)C | 30
48 | CCCCNC(=O)c1nc(C)c(C)nc1C(=O)Nc1cc(Cl)ccc1C | <10
